According to patent US7390625B2, “Apoptosis-associated protein and use thereof” (Takeda Pharmaceutical Company Limited, priority 2002, dated 2008):
Peptide text beside a SMILES is read from it. * marks the point of attachment. Cbz = O=C(OCc1ccccc1)*; CH2F = FC*

Test system: PAE-ABP1 cells
Test: Cell death assay in PAE-ABP1 cells after removal of tetracycline
Format: cell-based, porcine
Conditions: 50 μM, 18 hours after tetracycline removal
Description: FIGS. 7A-B show the induction of cell death by ABP1 in PAE-ABP1 cells. FIG. 7A: Phase contrast photomicrographs at 36 hours after cultivation of PAE-ABP1 cells in the presence (+) and absence (−) of tetracycline (Tet) are shown. FIG. 7B: The ratio (%) of cell death from cultivation in the presence of tetracycline (O hour) and at 24 hours and 48 hours after removal of tetracycline.
FIGS. 9A-B show the caspase dependency of cell death by ABP1. FIG. 9A: PAE-ABP1 cells were cultivated in the absence of tetracycline, and caspase-3 activity was measured after 0, 12, 24, and 36 hours. The results are shown as relative values with the value in the presence of tetracycline taken as 1. FIG. 9B: PAE-ABP1 cells were treated with zVAD-fmk (50 μM) simultaneously with removal of tetracycline, and the ratio (%) of dead cells was quantified. Cell death assay was conducted at 18 hours after removal of tetracycline. […]
When these cells were cultured in the absence of tetracycline, cell death was induced with the expression of the ABP1 protein, as in the transient expression of the ABP1 protein in HeLa cells (FIG. 7A). The ratio of dead cells to all cells (the ratio of cells showing a morphological sign of cell death to all cells was determined under a microscope; the results were shown as the mean for three visual fields) was determined to be about 55% at 48 hours after removal of tetracycline (FIG. 7B).

For `COC(=O)C[C@H](NC(=O)[C@H](C)NC(=O)[C@@H](NC(=O)OCc1ccccc1)C(C)C)C(=O)CF` [zVAD-fmk, reference compound] (Cbz-Val-Ala-Asp(OMe)-CH2F), the “suppression of cell death caused by ABP1” value was “almost completely suppressed”.
